In the assay the test system is Proteus mirabilis 29906 (Pm) lysate. In words: Inhibition of formation of TMA from choline in Proteus mirabilis lysate (d9-choline to d9-TMA, LC-MS/MS). Particulars: conversion of choline to TMA; Pm lysate 1.5 mg/mL protein, 50 μM d9-choline chloride, 37° C., two hours; read-out: TMA Inhibition (IC50, mol/L). Format: biochemical. How it is done:
EXAMPLE 2 Assay for identifying and characterizing compounds that inhibit the formation of TMA from choline.
This example provides an exemplary assay for identifying and characterizing compounds that inhibit the formation of TMA from choline.
Proteus mirabilis 29906 (Pm) strain was grown aerobically overnight in 500 ml of Nutrient Broth media (3 g/L beef extract, 5 g/L Peptone; Difco #234000) at 37° C. with 250 rpm shaking. The biomass was pelleted by centrifugation at 6000×g for 12 minutes at 4° C. The cell pellet was suspended in 240 mL of ice-cold 1× Phosphate Buffered Saline (Ca^2+ and Mg^2+ free). Ninety micrograms of Lysozyme (Sigma #L6876 Lot #SLBG8654V; Sigma-Aldrich Corp., St. Louis, Mo.) was added and incubated with 320 rpm shaking for 30 minutes at 4° C. Lysis was achieved via French press with a 4° C. prechilled 1″ diameter chamber at 1000 psi (high ratio; internal PSI equivalent ˜16000). The lysate was centrifuged at 6,000×g for 12 minutes at 4° C. to pellet extra debris. A protein concentration of the centrifuged lysate supernatant was determined by a BCA Protein Assay Kit (Pierce #23225; Thermo Fisher Scientific Co., Waltham, Mass.) and protein concentration adjusted to 3 mg/ml with 1× Dulbecco's phosphate buffered saline (DPBS). The centrifuged supernatant lysate was aliquoted into 20 mL volumes and stored frozen at −80° C.
Proteus mirabilis 29906 (Pm) lysate was diluted to 1.5 mg/mL protein with 1×DPBS. Choline chloride (CC) (1M stock) was added to reach a final concentration of 2.5 mM choline chloride. The mixture was mixed using a vortex mixer for approximately 15 seconds and incubated at 37° C. for 22 hours. After incubation, 150 μL of CC-treated Pm lysate was dispensed into a deep-well plate (polypropylene, 2 mL volume, Corning Axygen catalogue #P-DW-20-C). Candidate IC50 compounds from TABLE 1 and vehicle control (respective vehicle control of DMSO or water), or control compounds (IC50 control, 8-Quinolinol hemisulfate salt (Sigma Catalog #55100)) were added at a 1:100 dilution (e.g., 1.5 μL per well). The plates were agitated on a plate shaker for 1 minute. d9-choline chloride (1.5 μL of 5 mM) was added to all wells to reach a final d9-choline chloride concentration of 50 μM.
The plates were again agitated on a plate shaker for 1 minute and incubated at 37° C. for two hours. After incubation, 1.5 μL of formic acid was added to each well (final concentration=1% formic acid). The plates were agitated on a plate shaker for 1 minute and placed on ice. Cell lysate samples were spiked with stable isotope labeled internal standard (22.5 μL of 6 μg/mL of 13C3-trimethylamine (13C3-TMA) was added to each sample), then d9-trimethylamine (d9-TMA), trimethylamine (TMA) and 13C3-TMA were isolated from the lysate after protein precipitation as described below. Acetonitrile acidified with 0.1% formic acid, 600 μL, was added to each sample which was then centrifuged (2,100 g for 20 minutes) to pellet the protein and other precipitates. The supernatant was removed and analyzed as described below. The TMA, d9-TMA and 13C3-TMA in the isolated supernatant samples were subjected to gradient High Performance Liquid Chromatography (HPLC) analysis on a Waters Atlantis HILIC Silica column, from Waters Corp., Milford, Mass., (2.1×50 mm, 3 μm particles) with an Atlantis Silica HILIC Sentry guard column, from Waters Corp., Milford, Mass., (100 Å, 3 μm, 2.1 mm×10 mm), 10 mM ammonium formate in water with 0.1% formic acid as mobile phase A and 0.1% formic acid in acetonitrile as mobile phase B. Detection and quantitation was achieved by tandem mass spectrometry operating under multiple reaction monitoring (MRM) MS/MS conditions (m/z 60.1→44.1 for TMA, m/z 69.1→49.1 for d9-TMA, m/z 63.0→46.1 for 13C3-TMA). TMA and d9-TMA calibration standards (STD), prepared in 80/20/0.1% acetonitrile/Water/Formic Acid, were used to construct a regression curve by plotting the response (peak area TMA/peak area 13C3-TMA) versus concentration for each standard. […]
For `CCOC(=O)C(=O)C[N+](C)(C)CCN=C=S` [Compound 5, N-(Ethoxypropyl-2,3-dione)-2-isothiocyanato-N,N-dimethylethan-1-aminium bromide], the IC50 worked out at 769 µM.
Turning to `CCOC(=O)C(=O)C[N+](C)(C)CCCN=C=S` [Compound 6], the IC50 was found to be 14.4 µM.
For the compound `CC[N+](C)(CC)CCCN=C=S` [Compound 2, 3-Isothiocyanato-N,N-diethyl-N-methylpropanaminium iodide], the IC50 was found to be 10.6 µM.
With `CC[N+](CC)(CC#N)CCCN=C=S` [Compound 9, N-Cyanomethyl-3-isothiocyanato-N,N-diethylpropan-1-aminium bromide] the figure was 60.5 µM; with `CC[N+](CC)(CCBr)CCCN=C=S` [Compound 7, N-(2-Bromoethyl)-3-isothiocyanato-N,N-diethylpropan-1-aminium triflate], 18.2 µM.

The record behind these values is US10213407B2, “Compounds and methods for inhibiting production of trimethylamine” (The Procter & Gamble Company, priority 2015, dated 2019).
